Values quoted from earlier work, collected in US7198928B2, “Human COX-1 alternatively spliced variants and methods of using same” (Allergan, Inc., priority 2003, dated 2007).

Tests used:
[1] = humans treated with rofecoxib, in comparison with patients receiving naproxen
[2] = test system: COX-1; conditions: human iris vs human blood

| Compound | thrombotic cardiovascular events [1] | potency of COX-1 inhibition in human iris relative to human blood [2] |
| --- | --- | --- |
| CS(=O)(=O)c1ccc(C2=C(c3ccccc3)C(=O)OC2)cc1 [rofecoxib] | significant increase in thrombotic cardiovascular events |  |
| C[C@H](C(=O)O)c1ccc(-c2ccccc2)c(F)c1 [S(+)flurbiprofen] |  | 70 fold |
